US10112943B2, “Substituted imidazoles as gamma secretase modulators” (Janssen Pharmaceutica NV, priority 2012, dated 2018)

Key:
Aβ40 = assay: In vivo efficacy: brain levels of soluble Aβ40 in non-transgenic rodents (MSD electrochemiluminescence); set-up: species or system mouse; settings: dose 30 mg/kg oral dosing, soluble fraction, untreated animals (Ctrl) set at 100, typical protocol 4 h after dose
Excerpt: (§1) To determine whether acute administration of an Aβ42 lowering agent would reduce Aβ42 levels in vivo, non-transgenic rodents, e.g. mice or rats were used. Animals treated with the Aβ42 lowering agent were examined and compared to those untreated or treated with vehicle and brain levels of soluble Aβ42, Aβ40, Aβ38, and Aβ37 were quantitated by Meso Scale Discovery's (MSD) electrochemiluminescence detection technology. Treatment periods varied from hours (h) to days and were adjusted based on the results of the Aβ42 lowering once a time course of onset of effect could be established.
A typical protocol for measuring Aβ42 lowering in vivo is shown but it is only one of many variations that could be used to optimize the levels of detectable Aβ. […] After 4 h, the animals were sacrificed and Aβ42 levels were analysed.
(§2) Blood was collected by decapitation and exsanguinations in EDTA-treated collection tubes. […] The left hemisphere was stored at −18° C. for quantitative analysis of test compound levels. […]
(§3) Mouse brains from non-transgenic animals were resuspended in 8 volumes of 0.4% DEA (diethylamine)/50 mM NaCl containing protease inhibitors (Roche-11873580001 or 04693159001) per gram of tissue, e.g. for 0.158 g brain, add 1.264 ml of 0.4% DEA. […] Nine parts of supernatant were neutralized with 1 part 0.5 M Tris-HCl pH 6.8 and used to quantify Aβ. […]

Aβ38 = assay: In vivo efficacy: brain levels of soluble Aβ38 in non-transgenic rodents (MSD electrochemiluminescence); set-up: species or system mouse; settings: dose 30 mg/kg oral dosing, soluble fraction, untreated animals (Ctrl) set at 100, typical protocol 4 h after dose
Excerpt: as §1, with “Aβ38 increasing agents” for “Aβ42 lowering agent”, “increase Aβ38” for “reduce Aβ42”, “MSD” for “Meso Scale Discovery's (MSD)”, “Aβ38 increase” for “Aβ42 lowering”
A typical protocol for measuring Aβ38 increase in vivo is shown but it is only one of many variations that could be used to optimize the levels of detectable Aβ. […] After 4 h, the animals were sacrificed and Aβ38 levels were analysed.
as §2, §3

For `Cc1cn(-c2ccc3n(c2=O)C[C@@H]2CC[C@@H](Cc4cc(C(F)(F)F)cc(C(F)(F)F)c4)N2C3=O)cn1` (single isomer, unassigned) [Compound 4, 3-[[3,5-bis(trifluoromethyl)phenyl]methyl]-2,3,11,11a-tetrahydro-8-(4-methyl-1H-imidazol-1-yl)-1H-pyrido[1,2-a]pyrrolo[1,2-d]pyrazine-5,9-dione ((3S, 11aS) or (3R, 11aR))], the “Aβ40 (% vs Ctrl) _Mean” value (Aβ40) was 69 % vs Ctrl, the melting point was 254.8 °C and the “Aβ38 (% vs Ctrl) _Mean” value (Aβ38) was 136 % vs Ctrl.
